Columns and labels:
Assay type in all cases: cell-based
[1] = system: Primary B cells from AID UNG double deficient mice; details: 1 nM DidB, 72 h, AID-ires-GFP vs GFP alone or AIDE58A
Experimental: Primary B cells were harvested from AID UNG double deficient mice and cultured with anti-CD180, IL-4 and LPS. […] 24 h post infection, cells were treated with either DMSO vehicle or 1 nM of the EEF1A inhibitor DidB. Toxicity was measured after 72 h as the % difference of GFP+ cells in the DidB-treated culture compared to DMSO control. Data from two mice are averaged, bars are SEM.

[2] = system: B cells from wt or UNG−/− mice; assay: B cell expansion by cell count after DidB treatment; details: cells counted 48 h post-treatment, LPS and IL-4
Experimental: (§1) B cells were purified from wt or UNG−/− mice, and cultured directly with LPS and IL-4 and were counted 48 h post-treatment in order to measure B cell expansion (FIG. 14B); or after loading with the CFSE dye and cell divisions for treated cells were measured by analyzing the dilution of CFSE dye at 24 h post-treatment. Dilution of CFSE in cells is proportional to proliferation (FIGS. 14C-D).
(§2) 24 h later, cells were treated with either DMSO or DidB.

[3] = system: B cells from wt or UNG−/− mice; assay: B cell divisions by CFSE dilution after DidB treatment; details: Ung-deficient vs wt B cells
Experimental: as §1, §2

CC[C@H](C)[C@H]1NC(=O)[C@@H](NC(=O)[C@@H](CC(C)C)N(C)C(=O)[C@@H]2CCCN2C(=O)C(C)O)[C@@H](C)OC(=O)[C@H](Cc2ccc(OC)cc2)N(C)C(=O)[C@@H]2CCCN2C(=O)[C@H](CC(C)C)NC(=O)[C@@H](C)C(=O)[C@H](C(C)C)OC(=O)C[C@@H]1O (stereo partly shown) [DidB, didemnin B]
sensitivity to DidB (toxicity, % difference of GFP+ cells vs DMSO) [1]: substantially more sensitive
B cell expansion [2]: further diminishes expansion in Ung-deficient B cells
sensitivity to DidB treatment (cell divisions, CFSE) ([3]; 24 h post-treatment): more sentitive
inhibition of proliferation ([3]; dose-dependent, CFSE dilution 24 h post-treatment): more marked in Ung-deficient B cells than wt B cells
